Where “and” joins values, the source holds several entries; their conditions need not be identical. Equal values may be shown once.
Experiments:
Mus musculus = settings: repeat dose other; oral
Rattus norvegicus [1] = settings: uterotrophic; duration: 3 days; injection; subcutaneous; Active
Rattus norvegicus [2] = test system: Rattus norvegicus
Danio rerio = settings: whole body
Rattus norvegicus [3] = settings: subchronic; oral; gavage; M; Sprague-Dawley; Clinical Observation: Salivation Perioral smudge + Body Weight Changes: Gain decrease + Food Consumption: decrease + Hematology: RBC …
[4] = reproduction developmental, duration: 4 days, oral, gavage, F, Sprague-Dawley, generation: P0, P0: dam body weight gain
[5] = short-term, duration: 3 days, injection, subcutaneous, F, Sprague-Dawley, uterus: absolute blotted uterine weight in the presence of EE
[6] = short-term, duration: 10 days, oral, gavage, M, BrlHan:WIST, body weight + male accessory sex gland: BC/LA weight (relative)
[7] = short-term, duration: 10 days, oral, gavage, M, BrlHan:WIST, male accessory sex gland: glans penis weight (relative)
[8] = short-term, duration: 10 days, oral, gavage, M, BrlHan:WIST, male accessory sex gland: relative bulbourethral gland weight in the presence of TP + penis: relative penis weight in the absence of TP
[9] = short-term, duration: 14 days, oral, gavage, M, Sprague-Dawley, body weight + serum LH + serum TCHO
[10] = short-term, duration: 14 days, oral, gavage, M, Sprague-Dawley, serum FSH
[11] = short-term, duration: 14 days, oral, gavage, M, Sprague-Dawley, serum T + testis: testis/body weight
[12] = short-term, duration: 28 days, oral, gavage, F, Sprague-Dawley, body weight
[13] = short-term, duration: 28 days, oral, gavage, F, Sprague-Dawley, heart: heart weight + thymus: serum T4
[14] = short-term, duration: 28 days, oral, gavage, M, Sprague-Dawley, adrenal gland: hypertrophy of zona fasciculata + body weight + heart: heart weight + liver: decreased hepatocytic glycogen + liver: liver …
[15] = chronic, duration: 120 days, F, AB-type, E2 + E2:T ratio + gene expression
[16] = chronic, duration: 120 days, M/F, AB-type, fertilization rate + malformation rate + survival rate
[17] = chronic, duration: 120 days, M, AB-type, E2 + E2:T ratio + gene expression + liver: vtg1 expression + T
[18] = developmental, duration: 21 days, M/F, developmental lesion
[19] = short-term, duration: 28 days, F, VTG expression
[20] = short-term, duration: 28 days, F, thymus: Free T3

## [Na+].[O]=[Nb](=[O])[O-] [Sodium niobate (NaNbO3)]
Mus musculus
  LOAEL: 1.55 mg/kg-day
  NOAEL: 0.155 mg/kg-day

## Oc1ccc(C(c2ccc(O)cc2)(C(F)(F)F)C(F)(F)F)cc1 [Bisphenol AF]
Rattus norvegicus [1]
  LEL: 4 mg/kg-day and 8 mg/kg-day and 4.04 mg/kg-day
Rattus norvegicus [2]; [4]
  LOEL: 400 mg/kg-day
  NOEL: 300 mg/kg-day
Rattus norvegicus [2]; short-term, duration: 3 days, injection, subcutaneous, F, Crj:CD, body weight
  NOEL: 100 mg/kg-day
Rattus norvegicus [2]; short-term, duration: 3 days, injection, subcutaneous, F, Crj:CD, uterus: uterine dry weight (absolute) + uterus: uterine dry weight (relative)
  LOEL: 8 mg/kg-day
Rattus norvegicus [2]; short-term, duration: 3 days, injection, subcutaneous, F, Sprague-Dawley, body weight in the absence of EE + body weight in the presence of EE
  NOEL: 100 mg/kg-day
Rattus norvegicus [2]; short-term, duration: 3 days, injection, subcutaneous, F, Sprague-Dawley, uterus: absolute blotted uterine weight in the absence of EE + uterus: relative blotted uterine weight in the absence of EE + uterus: …
  LOEL: 4 mg/kg-day
Rattus norvegicus [2]; [5]
  LOEL: 20 mg/kg-day
  NOEL: 4 mg/kg-day
Rattus norvegicus [2]; [6]
  LOEL: 200 mg/kg-day
  NOEL: 50 mg/kg-day
Rattus norvegicus [2]; short-term, duration: 10 days, oral, gavage, M, BrlHan:WIST, male accessory sex gland: Cowper's gland weight (relative) + male accessory sex gland: seminal vesicle weight (relative) + male accessory …
  NOEL: 600 mg/kg-day
Rattus norvegicus [2]; [7]
  LOEL: 600 mg/kg-day
  NOEL: 200 mg/kg-day
Rattus norvegicus [2]; short-term, duration: 10 days, oral, gavage, M, BrlHan:WIST, male accessory sex gland: relative bulbourethral gland weight in the absence of TP + male accessory sex gland: relative seminal vesicle …
  NOEL: 600 mg/kg-day
Rattus norvegicus [2]; [8]
  LOEL: 600 mg/kg-day
  NOEL: 200 mg/kg-day
Rattus norvegicus [2]; short-term, duration: 10 days, oral, gavage, M, BrlHan:WIST, male accessory sex gland: relative seminal vesicle weight in the presence of TP + penis: relative penis weight in the presence of TP
  LOEL: 50 mg/kg-day
Rattus norvegicus [2]; [9]
  LOEL: 50 mg/kg-day
  NOEL: 10 mg/kg-day
Rattus norvegicus [2]; [10]
  LOEL: 10 mg/kg-day
  NOEL: 2 mg/kg-day
Rattus norvegicus [2]; [11]
  LOEL: 200 mg/kg-day
  NOEL: 50 mg/kg-day
Rattus norvegicus [2]; short-term, duration: 14 days, oral, gavage, M, Sprague-Dawley, testis: testis weight
  NOEL: 200 mg/kg-day
Rattus norvegicus [2]; short-term, duration: 28 days, oral, gavage, F, Sprague-Dawley, adrenal gland: hypertrophy of zona fasciculata + bone marrow: decreased hematopoiesis + brain: brain weight + liver: decreased hepatocytic …
  NOEL: 100 mg/kg-day
Rattus norvegicus [2]; [12]
  LOEL: 30 mg/kg-day
  NOEL: 10 mg/kg-day
Rattus norvegicus [2]; [13]
  LOEL: 100 mg/kg-day
  NOEL: 30 mg/kg-day
Rattus norvegicus [2]; short-term, duration: 28 days, oral, gavage, M, Sprague-Dawley, adrenal gland: adrenals weight + bone marrow: decreased hematopoiesis + brain: brain weight + spleen: decreased extramedullary hematopoiesis…
  NOEL: 100 mg/kg-day
Rattus norvegicus [2]; [14]
  LOEL: 100 mg/kg-day
  NOEL: 30 mg/kg-day
Danio rerio; [15]
  LOEL: 0.125 mg/L
  NOEL: 0.025 mg/L
Danio rerio; [16]
  LOEL: 0.125 mg/L
  NOEL: 0.025 mg/L
Danio rerio; chronic, duration: 120 days, M/F, AB-type, hatchability
  LOEL: 0.005 mg/L
Danio rerio; [17]
  LOEL: 0.025 mg/L
  NOEL: 0.005 mg/L
Danio rerio; [18]
  LOEL: 1.5 mg/L
  NOEL: 1 mg/L
Danio rerio; short-term, duration: 21 days, M/F, vitellogenin
  LOEL: 0.5 mg/L
Danio rerio; [19]
  LOEL: 0.25 mg/L
  NOEL: 0.05 mg/L
Danio rerio; short-term, duration: 28 days, F, condition factor
  LOEL: 0.05 mg/L
Danio rerio; [20]
  LOEL: 1 mg/L
  NOEL: 0.25 mg/L
Danio rerio; short-term, duration: 28 days, M, 17beta-estradiol + VTG expression
  LOEL: 1 mg/L
Danio rerio; short-term, duration: 28 days, M, VTG expression
  NOEL: 0.25 mg/L
Danio rerio; short-term, duration: 28 days, M, body weight + length
  NOEL: 0.05 mg/L
Danio rerio; short-term, duration: 28 days, M, body weight + length + T
  LOEL: 0.25 mg/L
Rattus norvegicus [3]
  NOEL: < 30 mg/kg-day
